Data as given in patent publication US10774039B2, “Cyclopropene amino acids and methods” (United Kingdom Research and Innovation, priority 2014, dated 2020).

What was measured:
PylRS/tRNACUA pair [1] = assay: Site-specific incorporation into sfGFP150TAG expressed in E. coli; assay type: cell-based, Methanosarcina barkeri
Experimental: FIG. 2A: The PylRS/RNACUA pair directs efficient, site-specific incorporation of 3 into sfGFP bearing an amber stop codon at position 150.
Expression and purification of sfGFP-3 from E. coli Electrocompetent E. coli DH10B cells were co-transformed with pBK-MbPylRS and psfGFP150TAG PyIT^14, 26. Transformed cells were recovered in S.O.B. (1 mL, supplemented with 0.2% glucose) for 1 h at 37° C. and used to inoculate LB containing 50 μg/mL kanamycin and 25 μg/mL tetracycline (LB-KT). The cells were incubated with shaking overnight at 37° C., 250 r.p.m. 1 mL of overnight culture was used to inoculate 100 mL of LB-KT½, the day culture was then incubated (37° C., 250 r.p.m). At O.D.600˜0.3, the culture was divided equally and supplemented with either 3 (1 mM) or H2O (500 μL) and incubated further (37° C., 250 r.p.m). At O.D.600˜0.6 protein expression was induced by the addition of arabinose (0.2%), after 4 h, the cells were harvested by centrifugation (4000 r.p.m, 20 min) and the pellet frozen until further use.
The frozen bacterial pellet was thawed on ice and resuspended in 2.5 mL lysis buffer (Bugbuster®, Novagen®, 50 μg/mL DNAse 1, Roche inhibitor cocktail and 20 mM imidazole). Cells were incubated (4° C., 30 minutes) then clarified by centrifugation (16000 g, 4° C., 30 minutes). The clarified lysates were transferred to fresh tubes and 100 μL Ni-NTA slurry added. The mixtures was incubated with agitation (4° C., 1 h) and then collected by centrifugation (1000 g, 4° C., 5 min). The beads were resuspended three times in 500 μL wash buffer (10 mM Tris-HCL, 40 mM imidazole, 200 mM NaCl, pH 8) and collected by centrifugation (1000 g, 4° C., 5 min). Finally, the beads were resuspended in 100 μL, elution buffer (10 mM Tris-HCL, 300 mM imidazole, 200 mM NaCl, pH 8), pelleted by centrifugation (1000 g, 4° C., 5 min) and the supernatant collected into fresh tubes. The elution was repeated three times with 100 μL of elution buffer. The purified proteins were analysed by 4-12% SDS-PAGE and LC-MS.

PylRS/tRNACUA pair [2] = molecular target: T1, PylRS/tRNACUA pair (Methanosarcina mazei, UniProt Q8PWY1); assay: Amber suppression of mCherry-TAG-EGFP-HA in HEK293 cells (western blot); assay type: cell-based; set-up: expressed in transfected cells; host or cells: HEK293 (ATCC CRL-1573); conditions: amber stop codon
T1 sequence (Q8PWY1 whole entry): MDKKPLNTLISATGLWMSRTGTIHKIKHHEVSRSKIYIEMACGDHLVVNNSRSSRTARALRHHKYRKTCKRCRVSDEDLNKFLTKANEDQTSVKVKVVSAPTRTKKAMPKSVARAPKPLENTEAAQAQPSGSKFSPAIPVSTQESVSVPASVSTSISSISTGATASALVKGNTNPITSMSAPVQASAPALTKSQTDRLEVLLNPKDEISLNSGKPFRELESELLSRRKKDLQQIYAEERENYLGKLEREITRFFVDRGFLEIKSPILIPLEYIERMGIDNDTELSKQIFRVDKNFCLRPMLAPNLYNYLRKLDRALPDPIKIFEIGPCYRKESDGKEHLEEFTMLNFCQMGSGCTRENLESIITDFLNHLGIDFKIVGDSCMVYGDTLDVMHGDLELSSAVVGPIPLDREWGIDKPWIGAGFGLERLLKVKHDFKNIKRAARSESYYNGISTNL
Experimental: Anti-FLAG detected tagged PylRS. FIG. 8B: Specific labelling of mCh-TAG-EGFP-HA (immunoprecipitated from 10^6 cells) with 4a (20 μM in 50 μL PBS, 1 h, RT) confirms the incorporation of 3 into protein in HEK293 cells. FIG. 8C: SORT-M labelling of 3 that is statistically incorporated into newly synthesised proteins across the whole proteome of mammalian cells directed by six different PylRS/PyltRNAXXX (mutants using 0.5 mM 3. Labeling with 4g (20 μM in PBS, 1 h, RT, as above). The amino acids in parentheses are the natural amino acids encoded by the endogenous tRNA bearing the corresponding anti-codon.
HEK293 Cells (ATCC CRL-1573) were plated on 24 well plates and grown to near confluence. The cells were transfected using Lipofectamine 2000 (Invitrogen) with the pMmPylS-mCherry-TAG-EGFP-HA construct and the p4CMVE-U6-PylT construct.^18 After 16 hrs growth with or without 1 mM 3 or with 1 mM 1 the cells were lysed on ice using RIPA buffer (Sigma). The lysates were spun down and the supernatant was added to 4×LDS sample buffer (Life technologies). The samples were run out by SDS-PAGE, transferred to a nitrocellulose membrane and blotted using primary rat anti-HA(clone 3F10, Roche, No. 867 423) and mouse anti-FLAG (clone G191, Abnova, cat. MAB8183), the secondary antibodies were anti-rat (Invitrogen, A11077) and anti-mouse (Cell Signaling Technologies, No. 7076S).

PylRS/tRNACUA pair [3] = molecular target: T1, PylRS/tRNACUA pair; assay: Dual luciferase reporter assay on ovary extract of flies fed amino acid; assay type: in vivo, D. melanogaster; set-up: expressed in transfected cells; host or cells: transgenic Drosophila melanogaster, ovaries (UAS-PylRS driven by nos-vp16-GAL4); conditions: flies fed 10 mM amino acid
Experimental: Dual luciferase assay on ovary extract from 10 female flies expressing Triple-Rep-L in the presence or absence of 10 mM 1 or 10 mM 3. […] The error bars represent the standard deviation of 3 technical replicates from a single biological replicate. FIG. 10B: Site-specific incorporation of 3 (or 1) into GFP_TAG_mCherry-HA in flies expressing PylRS/PyltRNACUA. The full-length protein resulting from unnatural amino acid incorporation is detected by anti-HA western blot. FIG. 10C: Specific labelling of encoded 3 with tetrazine probes. Flies were fed with no amino acid, amino acid 1 (500 flies) or amino acid 3 (100 flies). […] The full-length protein containing the unnatural amino acid was immunoprecipitated from lysed ovaries with anti-GFP beads. The beads were labelled (4g, 4 μM, 200 μL, PBS, RT, 2 h) washed.
Transgenic lines were created by P element insertion using a Drosophila embryo injection service (BestGene Inc.). Lines were generated using the following plasmids: pFT58 (Ala), pFT60 (Ser), pFT62 (Leu) and pFT63 (Met). nos-Gal4-VP16 (Bloomington 4937) and MS1096-Gal4 (Bloomington 8860) were used as Gal4 drivers. All flies were grown at 25° C. on standard Iberian medium. Flies were fed unnatural amino acids by mixing dried yeast with the appropriate concentration of amino acid (usually 10 mM) diluted in dH2O to make a paste. Ovaries were prepared from females that were grown on Iberian fly food supplemented with a yeast paste with or without the amino acid for a minimum of 48 hours. For proteome labelling experiments transgenic male flies of constructs FT58, FT60, FT62 and FT63 were crossed with nos-vp16-GAL4 virgins to generate FT58/nos-vp16-GAL4, FT60/nos-vp16-GAL4, FT62/nos-vp16-GAL4 and FT63/nos-vp16-GAL4 respectively.
Ovaries from 10 females of Triple Rep-L flies recombined with nos-Gal4-VP16 fed 3, 1 or no amino acid were dissected in 100 μl 1× Passive lysis buffer and processed for luciferase assays as previously described^20.

CC1=CC1COC(=O)NCCCC[C@H](N)C(=O)O (stereo partly drawn) [amino acid 3, N^ε-[((2-methylcycloprop-2-en-1-yl)methoxy)carbonyl]-L-lysine]
yield of protein (PylRS/tRNACUA pair [1]; SfGFP gene with amber codon at position 150, E. coli, PylRS/tRNACUA pair): 8 mg per litre of culture | efficiency of site-specific incorporation into sfGFP (PylRS/tRNACUA pair [1]; amber stop codon at position 150, E. coli, compared with 1): more efficient than 1 | full-length mCherry-EGFP-HA protein expression (PylRS/tRNACUA pair [2]): detected only in the presence | dual luciferase signal compared with 1 (PylRS/tRNACUA pair [3]): larger | luciferase signal dependent on amino acid addition (PylRS/tRNACUA pair [3]): strong luciferase signal
